The test system of data set [1] is HER2. Nature of the data set: High-throughput evaluation of HER2 downregulation. Format: cell-based. The conditions noted are these: 17-AAG 10 μM with Compound 3 30 nm; SKOV3 cells expressing HER2-HaloTag; five hours; versus DMSO. On the procedure: The pH-sensitive fluorescent probe Compound 3 and 17-AAG (Wako Pure Chemicals) were diluted with water. An equal amount of DMSO (Sigma-Aldrich) was added as a control for the 17-AAG. SKOV3 cells expressing the HER2-HaloTag were suspended in RPMI (Nacalai Tesque) containing 2% FBS (CCB), implanted in a 384-well imaging plate (PerkinElmer), and cultured overnight at 37° C. in a 5% CO2 atmosphere.
Compound 3 and 17-AAG were added to […] of a 384-well imaging plate implanted with SKOV3 cells expressing the HER2-HaloTag to respective final concentrations of 30 nm and 10 μM. DMSO alone was added to 32 wells instead of 17-AAG as a control. Fluorescence values at 580 nm induced by 535 excitation were measured using a plate reader, after which culturing was performed at 37° C. in a 5% CO2 atmosphere for five hours, and fluorescence values were again measured using the plate reader. […] In this way, it is possible to simply evaluate downregulation of the cancer-related receptor HER2 via fluorescence values.

The conditions of data set [2]: in ethanol; cited from earlier work.
A short description of data set [3]: pH profile of fluorescent intensity (pKa) in phosphate buffer. The conditions noted are these: sodium phosphate buffer, from pH profile of fluorescent intensity. Format: physicochemical. Here is the method:
(§1) In order to measure absorption and fluorescence spectra, a dye compound was dissolved in dimethyl sulfoxide (DMSO, fluorescent analysis-grade, Dojindo) to obtain 1 mM of standard solution. Using a UV-1650 PCUV/V spectrometer (Shimadzu) and an FP-6600 fluorescence spectrometer (JASCO), the optical properties of the dye compound in 200 mM of a sodium phosphate buffer solution containing 0.03% (v/v) DMSO as a cosolvent were measured. In order to determine fluorescence quantum yield (Φf1), the value (Φf1=0.65) of Rhodamine B in ethanol was used as a standard. The value was calculated according to the following formula. Φx/Φst=[Ast/Ax][nx^2/nst^2][Dx/Dst]
The absorption spectrum and fluorescence emission spectrum when solution pH was altered from 2.0 to 10.0 for Compound A obtained in Example 1 were obtained according to the measurement method described above.
Using a 100 mM phosphate buffer solution of Compound 1 (500 nM) obtained in Example 2, pH was altered from 4.39 to 9.24, and the fluorescence spectrum was measured.
A fitted curve for the pH profile was obtained according to the following formula.
Next, in order to investigate the reversibility of pH changes in Dye Conjugate 1, the fluorescent intensity ratio (fluorescent intensity at 540 nm/fluorescent intensity at 488 nm) was calculated for a case in which pH was cycled between 7.1 and 3.2 every 30 seconds.

Data set [4] is described as follows: Optical properties and fluorescence quantum yield. Format: physicochemical. The conditions noted are these: for Maximum Absorption Wavelength (nm) / Maximum Emission Wavelength (nm): 200 mM sodium phosphate buffer, 0.03% (v/v) DMSO. Here is the method:
as §1
The absorption spectrum and fluorescence emission spectrum when solution pH was altered from 2.0 to 10.0 for Compound A obtained in Example 1 were obtained according to the measurement method described above. Absorption spectra are shown in FIG. 1-1, fluorescence emission spectra in FIG. 1-2, and a pH profile showing pH-induced changes in fluorescent intensity in FIG. 1-3. The maximum absorption wavelength, maximum emission wavelength, fluorescent quantum yield, and pKa when pH is changed from 10.0 to 4.0 are shown in table 1.

Like-named read-outs stand apart in the source and are kept apart here.

As for `C=CCNC1=C2C[C@@H](C)C[C@H](OC)[C@H](O)[C@@H](C)/C=C(\C)[C@H](OC(N)=O)[C@@H](OC)/C=C\C=C(/C)C(=O)NC(=CC1=O)C2=O` [Compound 17-AAG], in data set [1], the “Difference in fluorescence values before and after culturing (F5−F0)” value is reported as “large increase in fluorescence values”.
`CCN(CC)c1ccc2c(-c3ccccc3C(=O)O)c3ccc(=[N+](CC)CC)cc-3oc2c1.[Cl-]` [Rhodamine B]: in data set [2], the “Fluorescence Quantum Yield of the standard” value is 0.65.
Regarding `CN1CCN(c2ccc3c(-c4ccccc4C(=O)N(C)CC(=O)NCCOCCOCCOCCC(=O)[O-])c4ccc(=[N+]5CCN(C)CC5)cc-4oc3c2)CC1` [Compound D, 2-methyl-1-(2-(3-(4-methylpiperazine-1-ium-1-ylidene)-6-(4-methylpiperazine-1-yl)-3H-xanthene-9-yl)phenyl)-1,4-dioxo-8,11,14-trioxa-2,5-diazaheptadecane-17-oate], the pKa was 6.6 in data set [3] (read-out: pKa (higher, pKa2)) and 5.3 in data set [3] (read-out: pKa (lower, pKa1)).
As to `CN1CCN(c2ccc3c(-c4ccccc4C(=O)O)c4ccc(=[N+]5CCN(C)CC5)cc-4oc3c2)CC1.[Cl-]` [Compound A, 1-(9-(2-carboxyphenyl)-6-(4-methylpiperazine-1-yl)-3H-xanthene-3-ylidene)-4-methylpiperazine-1-ium chloride], the “Shift of maximum absorption wavelength to shorter wavelength” value in data set [4] (deprotonated type (pH 10.0) to protonated type (pH 4.0)) came to 20 nm. The “Maximum Absorption Wavelength (nm)” value in data set [4] (pH 4.0) worked out at 527 nm; in data set [4] (pH 10.0) it was 547 nm. In addition, the “Maximum Emission Wavelength (nm)” value in data set [4] (pH 4.0) was 554 nm; in data set [4] (pH 10.0) it was 575 nm. In addition, the “Fluorescence Quantum Yield” value in data set [4] (pH 10.0 (deprotonated type), standard Rhodamine B in ethanol) worked out at 0.024. Moreover, the pKa in data set [3] (read-out: pKa (higher, pKa2)) was 6.8; in data set [3] (read-out: pKa (lower, pKa1)), 5.4.

These data come from patent US9784732B2, “Acidic environment-detecting fluorescent probe” (THE UNIVERSITY OF TOKYO, priority 2011, dated 2017).
